Converted amounts (≈) assume the structure as drawn. *1 amine or outer side, *2 acyl side, *3 side chain or, on linkers, in order; H or OH if unused. Where a SMILES comes first, the peptide text is derived from it. Bridges are numbered along the chain shown (N, C = ends). [ ]: non-standard residue; d: D form. The star is where a group is joined. TBMB = c1c(C[*:1])cc(C[*:3])cc1C[*:2]; NHDecyl = CCCCCCCCCCN*
Experiments:
[1] = tested on: E. faecium (E980); assay: microbe, parasite or virus in culture; assay type: cell-based, Enterococcus faecium
Summary of the method: (§1)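 Growth inhibition was scored by broth microdilution in TSB against peptide serial dilutions (maximum 512 µg/ml; lipidated analogues maximum 64 µg/ml; 2% DMSO). Bacteria reaching OD600 0.5 were added from a 1 x 10^6 CFU/ml suspension, then plates were incubated shaking at 250 rpm.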

[2] = tested on: E. faecium (VRE0321); assay: microbe, parasite or virus in culture; assay type: cell-based, Enterococcus faecium
Summary of the method: as §1

[3] = tested on: E. faecium (VRE155); assay: microbe, parasite or virus in culture; assay type: cell-based, Enterococcus faecium
Summary of the method: as §1

[4] = tested on: E. faecium (VRE2297); assay: microbe, parasite or virus in culture; assay type: cell-based, Enterococcus faecium
Summary of the method: as §1

[5] = tested on: E. faecium (VRE7391); assay: microbe, parasite or virus in culture; assay type: cell-based, Enterococcus faecium
Summary of the method: as §1

[6] = tested on: Sheep blood; assay: Hemolysis assay; assay type: cell-based; details: Supplemental table S9; 1 hour incubation at 37 °C, lipopeptides at 32 µg/mL
Summary of the method: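 Washed sheep erythrocytes in PBS were incubated with serial peptide dilutions, top concentration 64 µg/mL with 2% DMSO, for 1 h at 37 °C. Released hemoglobin in the supernatant was read at 414 nm and referenced to 0.1% Triton X-100 (100% lysis) and PBS/2% DMSO (0% lysis).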

[7] = tested on: E. faecium E980; assay: UDP-MurNAc-pentapeptide accumulation assay; assay type: cell-based, Enterococcus faecium; details: E. faecium E980, peptides at 10x MIC, 30 min, chloramphenicol 130 µg/ml pre-treatment, LCMS; triplicate measurements
Description: We next examined the effect of the optimized P8-D-(S6R, R15A)-C10 lipopeptide on cell wall biosynthesis in live bacteria. Specifically, we employed an assay where the accumulation of the soluble intracellular lipid II precursor UDP-MurNAc-pentapeptide is measured in response to antibiotic administration. Antibiotics known to interfere with cell wall biosynthesis by sequestration of lipid II (i.e. vancomycin) can lead to UDP-MurNAc-pentapeptide accumulation in the cytosol which can then be extracted and assessed by chromatographic means.[18],[33] […] The effect of the lipopeptides on bacterial cell morphology was further investigated using scanning electron microscopy. To this end, VRE 155 cells were imaged after exposure to either P8-D-(S6R, R15A)-C10 or nisin at 2× the MIC.
Section 4 Biological and biochemical experiments
4.1 Minimum inhibitory concentration assay
MIC values were determined by using the broth microdilution method. […]
determining the MICs of the lipidated peptides, the lipopeptides were first dissolved in DMSO and diluted with TSB so that the peptide concentration was 128 µg/ml and the DMSO concentration was 4%. After inoculation the highest peptide concentration evaluated was 64 µg/ml and the DMSO concentration was 2%. […]
Hemolysis was determined by measuring the absorption at 414 nm to measure the amount of free […]

[8] = Supplemental table S9, MIC values of Table 2 expressed in µM
[9] = Table 2, broth microdilution in TSB, 16 h, read visually, highest tested 64 µg/ml
[10] = Supplemental table S9, vancomycin-resistant isolate, MIC values of Table 2 expressed in µM
[11] = Table 2, vancomycin-resistant isolate from hospitalized patients, broth microdilution in TSB, 16 h, highest tested 64 µg/ml

Structure (SMILES) | MIC E. faecium (E980) [1, 8] [µM] | MIC E. faecium (E980) [1, 9] [μg mL^–1] | MIC E. faecium (VRE0321) [2, 10] [µM] | MIC E. faecium (VRE0321) [2, 11] [μg mL^–1] | MIC E. faecium (VRE155) [3, 10] [µM] | MIC E. faecium (VRE155) [3, 11] [μg mL^–1] | MIC E. faecium (VRE2297) [4, 10] [µM] | MIC E. faecium (VRE2297) [4, 11] [μg mL^–1] | MIC E. faecium (VRE7391) [5, 10] [µM] | MIC E. faecium (VRE7391) [5, 11] [μg mL^–1] | Hemolysis [6] [%] | Accumulation of UDP-MurNAc-pentapeptide [7]
CCCCCCCCCCNC(=O)CNC(=O)[C@H]1CSCc2cc3cc(c2)CSC[C@@H](NC(=O)[C@@H](CC(C)C)NC(=O)[C@@H](CC(C)C)NC(=O)[C@@H](CCCNC(=N)N)NC(=O)[C@@H](CCC(N)=O)NC(=O)[C@@H](CC(C)C)NC(=O)[C@@H](CC(C)C)NC(=O)[C@H](NC(=O)[C@@H](C)N)CSC3)C(=O)N2CCC[C@@H]2C(=O)N[C@H](Cc2ccc(O)cc2)C(=O)N[C@H](CO)C(=O)N[C@H]([C@H](C)O)C(=O)N[C@H](Cc2c[nH]cn2)C(=O)N[C@H](C)C(=O)N1 [P8-D-(S6R, R15A)-C10] (H-[dA][dC][dL][dL][dQ][dR][dL][dL][dC][dP][dY][dS][dT][dH][dA][dC]G-NHDecyl; linker 2-9-16 via TBMB; N-terminus assumed) | 30.5 (≈ 64.1 µg/mL) | 32 | 7.6 (≈ 16 µg/mL) | 8 | 7.6 (≈ 16 µg/mL) | 8 | 15.2 (≈ 32 µg/mL) | 16 | 15.2 (≈ 32 µg/mL) | 16 | 0 | significant accumulation
CCCCCCCCCCNC(=O)CNC(=O)[C@@H]1CSCc2cc3cc(c2)CSC[C@H](NC(=O)[C@H](CC(C)C)NC(=O)[C@H](CC(C)C)NC(=O)[C@H](CCCNC(=N)N)NC(=O)[C@H](CCC(N)=O)NC(=O)[C@H](CC(C)C)NC(=O)[C@H](CC(C)C)NC(=O)[C@@H](NC(=O)[C@H](C)N)CSC3)C(=O)N2CCC[C@H]2C(=O)N[C@@H](Cc2ccc(O)cc2)C(=O)N[C@@H](CO)C(=O)N[C@@H]([C@@H](C)O)C(=O)N[C@@H](Cc2c[nH]cn2)C(=O)N[C@@H](C)C(=O)N1 [P8-L-(S6R, R15A)-C10] (H-ACLLQRLLCPYSTHACG-NHDecyl; linker 2-9-16 via TBMB; N-terminus assumed) | 30.5 (≈ 64.1 µg/mL) | 32 | 7.6 (≈ 16 µg/mL) | 8 | 7.6 (≈ 16 µg/mL) | 8 | 15.2 (≈ 32 µg/mL) | 16 | 15.2 (≈ 32 µg/mL) | 16 | 0 | significant accumulation
